Laboratory results reported in patent US9708314B2, “Heterocyclic amide compound” (NISSAN CHEMICAL INDUSTRIES, LTD., priority 2013, dated 2017).

Key:
Type in all cases: in vivo
[1] = test system: Cyperus difformis; test: Test Example 3: herbicidal effect by application to foliage (Wagner pot, water depth 0.1-0.5 cm); settings: Nineteenth Table; application to foliage; application herbicide amount 320 g/ha
In short: (§1)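 Grading uses six bands of herbicidal ratio, from 0 (≤5%, almost no effect) to 5 (≥90%, almost completely withered). Treatment was a stem-and-leaf spray of diluted emulsion at a fixed g/ha on 14-day-old plants; evaluation after three weeks.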

[2] = test system: Echinochloa crus-galli var. crus-galli; test: as above; settings: Nineteenth Table; application to foliage; application herbicide amount 320 g/ha
In short: as §1

[3] = test system: Leptochloa chinensis; test: as above; settings: Nineteenth Table; application to foliage; application herbicide amount 320 g/ha
In short: as §1

[4] = test system: directly sowed Oryza sativa; test: Test Example 3: effect on crop by application to foliage (Wagner pot, water depth 0.1-0.5 cm); settings: Nineteenth Table; application to foliage; application herbicide amount 320 g/ha
In short: as §1

[5] = test system: Abutilon theophrasti; test: Test Example 4: herbicidal effect by application to foliage (diluvial soil, plastic box); settings: application to foliage, 320 g/ha
In short: (§2)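 Plants were grown in sterilized diluvial soil in a greenhouse at 25-30° C for 14 days, then sprayed on stems and leaves with water-diluted emulsion formulation at set rates in g/ha. Weed control and crop injury were scored 3 weeks after treatment on a 0-5 herbicidal-ratio scale, from 0 (≤5%) to 5 (≥90%).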

[6] = test system: Alopecurus myosuroides; test: as above; settings: application to foliage, 320 g/ha
In short: as §2

[7] = test system: Amaranthus retroflexus; test: as above; settings: application to foliage, 320 g/ha
In short: as §2

[8] = test system: Apera spica-venti.; test: as above; settings: application to foliage, 320 g/ha
In short: as §2

[9] = test system: Avena fatua; test: as above; settings: application to foliage, 320 g/ha
In short: as §2

[10] = test system: Chenopodium album; test: as above; settings: application to foliage, 320 g/ha
In short: as §2

[11] = test system: Digitaria ciliaris; test: as above; settings: application to foliage, 320 g/ha
In short: as §2

[12] = test system: Echinochloa crus-galli var. crus-galli; test: as above; settings: application to foliage, 320 g/ha
In short: as §2

[13] = test system: Galium spurium; test: as above; settings: application to foliage, 320 g/ha
In short: as §2

[14] = test system: Lolium multiflorum Lam.; test: as above; settings: application to foliage, 320 g/ha
In short: as §2

[15] = test system: Setaria viridis; test: as above; settings: application to foliage, 320 g/ha
In short: as §2

[16] = test system: Stellaria media; test: as above; settings: application to foliage, 320 g/ha
In short: as §2

[17] = test system: Veronica persica; test: as above; settings: application to foliage, 320 g/ha
In short: as §2

Row | Compound | E (herbicidal effect grade) [1] | H (herbicidal effect grade) [2] | D (herbicidal effect grade) [3] | b (effect on crop grade) [4] | herbicidal effect, M (Abutilon theophrasti) [5] | herbicidal effect, J (Alopecurus myosuroides) [6] | herbicidal effect, N (Amaranthus retroflexus) [7] | herbicidal effect, L (Apera spica-venti.) [8] | herbicidal effect, I (Avena fatua) [9] | herbicidal effect, O (Chenopodium album) [10] | herbicidal effect, F (Digitaria ciliaris) [11] | herbicidal effect, H (Echinochloa crus-galli var. crus-galli) [12] | herbicidal effect, Q (Galium spurium) [13] | herbicidal effect, K (Lolium multiflorum Lam.) [14] | herbicidal effect, G (Setaria viridis) [15] | herbicidal effect, P (Stellaria media) [16] | herbicidal effect, R (Veronica persica) [17]
1 | Cn1nnnc1NC(=O)c1ccc(C(F)(F)F)n2c(=O)n(C)nc12 [6-002] | 4 (Herbicidal ratio of 70% or more and less than 90%) | 5 (Herbicidal ratio of 90% or more (almost completely withered)) | 5 (Herbicidal ratio of 90% or more (almost completely withered)) | 0 (Herbicidal ratio of 5% or less (almost no effect)) | 5 (Herbicidal ratio of 90% or more (almost completely withered)) | 0 (Herbicidal ratio of 5% or less (almost no effect)) | 5 (Herbicidal ratio of 90% or more (almost completely withered)) | 0 (Herbicidal ratio of 5% or less (almost no effect)) | 1 (Herbicidal ratio of 5% or more and less than 20%) | 5 (Herbicidal ratio of 90% or more (almost completely withered)) | 4 (Herbicidal ratio of 70% or more and less than 90%) | 5 (Herbicidal ratio of 90% or more (almost completely withered)) | 3 (Herbicidal ratio of 40% or more and less than 70%) | 0 (Herbicidal ratio of 5% or less (almost no effect)) | 3 (Herbicidal ratio of 40% or more and less than 70%) | 5 (Herbicidal ratio of 90% or more (almost completely withered)) | 4 (Herbicidal ratio of 70% or more and less than 90%)
2 | CCn1nc2c(C(=O)Nc3nnnn3C)ccc(C(F)(F)F)n2c1=O [6-004] | 2 (Herbicidal ratio of 20% or more and less than 40%) | 4 (Herbicidal ratio of 70% or more and less than 90%) | 5 (Herbicidal ratio of 90% or more (almost completely withered)) | 3 (Herbicidal ratio of 40% or more and less than 70%) | 5 (Herbicidal ratio of 90% or more (almost completely withered)) | 1 (Herbicidal ratio of 5% or more and less than 20%) | 5 (Herbicidal ratio of 90% or more (almost completely withered)) | 1 (Herbicidal ratio of 5% or more and less than 20%) | 3 (Herbicidal ratio of 40% or more and less than 70%) | 5 (Herbicidal ratio of 90% or more (almost completely withered)) | 5 (Herbicidal ratio of 90% or more (almost completely withered)) | 5 (Herbicidal ratio of 90% or more (almost completely withered)) | 4 (Herbicidal ratio of 70% or more and less than 90%) | 2 (Herbicidal ratio of 20% or more and less than 40%) | 4 (Herbicidal ratio of 70% or more and less than 90%) | 4 (Herbicidal ratio of 70% or more and less than 90%) | 3 (Herbicidal ratio of 40% or more and less than 70%)
3 | CC(C)c1nc2c(C(=O)Nc3nnnn3C)ccc(C(F)(F)F)n2n1 [7-002] | 4 (Herbicidal ratio of 70% or more and less than 90%) | 4 (Herbicidal ratio of 70% or more and less than 90%) | 4 (Herbicidal ratio of 70% or more and less than 90%) | 0 (Herbicidal ratio of 5% or less (almost no effect)) | 3 (Herbicidal ratio of 40% or more and less than 70%) | 0 (Herbicidal ratio of 5% or less (almost no effect)) | 4 (Herbicidal ratio of 70% or more and less than 90%) | 0 (Herbicidal ratio of 5% or less (almost no effect)) | 1 (Herbicidal ratio of 5% or more and less than 20%) | 5 (Herbicidal ratio of 90% or more (almost completely withered)) | 3 (Herbicidal ratio of 40% or more and less than 70%) | 4 (Herbicidal ratio of 70% or more and less than 90%) | 3 (Herbicidal ratio of 40% or more and less than 70%) | 0 (Herbicidal ratio of 5% or less (almost no effect)) | 2 (Herbicidal ratio of 20% or more and less than 40%) | 4 (Herbicidal ratio of 70% or more and less than 90%) | 3 (Herbicidal ratio of 40% or more and less than 70%)
